Read-outs that look alike come from different tables or passages of the source.
Key:
[1] = target: T1, MsTopA (Mycolicibacterium smegmatis, UniProt A0R5D9); assay: Topoisomerase I activity assay (relaxation of negatively supercoiled pUC19); assay type: biochemical, M. smegmatis; conditions: 60 nM MsTopA; for MsTopA inhibition in the screen of amsacrine derivatives (Table S2): 60 μM compound, data not shown; for inhibition at 60 µM: 60 μM inhibitor; for MsTopA activity inhibition over concentration range: concentrations from 15 to 60 μM
T1 sequence (A0R5D9 whole entry): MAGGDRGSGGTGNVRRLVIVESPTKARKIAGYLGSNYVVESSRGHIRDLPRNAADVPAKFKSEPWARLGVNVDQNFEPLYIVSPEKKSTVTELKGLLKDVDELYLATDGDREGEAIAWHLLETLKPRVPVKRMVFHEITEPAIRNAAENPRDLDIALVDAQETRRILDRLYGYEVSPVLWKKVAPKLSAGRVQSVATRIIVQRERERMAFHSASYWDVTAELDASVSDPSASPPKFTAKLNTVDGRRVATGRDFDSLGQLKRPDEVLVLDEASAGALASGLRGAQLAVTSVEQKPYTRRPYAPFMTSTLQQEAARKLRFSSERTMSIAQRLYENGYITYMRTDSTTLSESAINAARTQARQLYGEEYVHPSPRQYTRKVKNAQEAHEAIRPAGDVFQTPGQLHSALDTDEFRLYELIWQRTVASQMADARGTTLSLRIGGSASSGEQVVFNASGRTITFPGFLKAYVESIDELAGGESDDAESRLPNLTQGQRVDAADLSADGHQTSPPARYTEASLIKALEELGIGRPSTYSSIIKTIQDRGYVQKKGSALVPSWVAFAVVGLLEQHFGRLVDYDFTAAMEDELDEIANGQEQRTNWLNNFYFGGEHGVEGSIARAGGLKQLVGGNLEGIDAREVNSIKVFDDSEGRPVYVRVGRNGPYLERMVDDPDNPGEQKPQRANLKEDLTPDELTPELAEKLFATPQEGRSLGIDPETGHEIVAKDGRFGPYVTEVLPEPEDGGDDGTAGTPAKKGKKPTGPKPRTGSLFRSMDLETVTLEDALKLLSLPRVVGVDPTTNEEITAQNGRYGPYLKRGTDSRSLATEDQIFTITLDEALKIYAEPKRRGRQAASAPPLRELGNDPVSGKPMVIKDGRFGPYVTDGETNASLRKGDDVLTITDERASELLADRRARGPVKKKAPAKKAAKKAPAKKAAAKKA
Description: The amsacrine derivatives were stored at 4°C as 20 mM stock solutions in DMSO. Shortly before the activity assays, the inhibitors were diluted in DMSO to reach working concentration (0.15–0.6 mM). An 18 μl mixture containing 120 ng MsTopA, 25 mM NaH2PO4 at pH 8.0, 150 mM NaCl, 5% glycerol, 10 mM MgCl2 and a tested inhibitor in a final concentration of 15, 30, or 60 μM was incubated for 30 min on ice. To start the reaction, 2.0 μl (140 ng) of negatively supercoiled pUC19 plasmid were added to the mixture and incubated for 15 min at 37°C in the presence of 60 nM MsTopA. The reaction was stopped by adding 1.5 μl of 0.5 M EDTA. DNA was resolved in 0.8% agarose in TAE buffer at 140 V for 3 h at room temperature. Topoisomers distribution was visualized by ethidium bromide staining for 30 min at room temperature. Subsequently, the fluorescence signal of supercoiled plasmid and the relaxed topoisomers was calculated using ImageJ Fiji suite (http://fiji.sc/Fiji). To determine the efficiency of MsTopA inhibition, we calculated the fraction of total plasmid that remained supercoiled after the reaction.

[2] = target: T1, MsTopA; assay: MsTopA inhibition in PI, NI and PN order-of-addition assays; assay type: biochemical, M. smegmatis; conditions: 60 μM inhibitor, 60 nM MsTopA
Description: In the inhibition assays used to test the effect of inhibitor binding to the enzyme, DNA or the enzyme-DNA complex (PI—protein-inhibitor binding, NI—nucleic acid-inhibitor binding, or PNI—protein-nucleic acid binding) the complete reaction mixtures (as above) without magnesium ions and one of the reaction components (substrate, enzyme or inhibitor in the PI, NI, and PNI assays, respectively) were preincubated for 30 min on ice. Subsequently, the reactions were started by adding magnesium chloride and the missing component: negatively supercoiled pUC19 plasmid, MsTopA protein or the particular inhibitors. The reactions were performed for 5 min at 37°C and stopped by adding 1.5 μl of 0.5 M EDTA. Topoisomers were resolved and analyzed according to the procedure described above.

[3] = target: T1, MsTopA; assay: Surface plasmon resonance of MsTopA binding to immobilized DNA; parameters: species or system M. smegmatis; conditions: for MsTopA affinity for DNA (SPR): 15–90 μM compound, MsTopA 60 nM; for ICB, inhibitory concentration that completely blocks MsTopA binding: 241 bp DNA on chip, inhibitor preincubated with MsTopA
Description: Surface plasmon resonance (SPR)
SPR analyses were performed on a BIAcore T200. For the SPR analyses, the biotinylated fragment (241-bp long) was amplified using parA4200 and parS4440_rv_biot oligonucleotides from S. coelicolor chromosome. DNA immobilization on the surface of the sensor chip SA and protein binding analyses were performed according to the procedure described by Strzalka et al.[9]. Prior to binding to the DNA-coated chip, MsTopA (50 nM) in 25 mM NaH2PO4 pH 8.0, 150 mM NaCl and 5% glycerol (binding buffer) was incubated on ice for 40 minutes with amsacrine or its XC derivatives (in 15 - 90 µM concentrations or 1% DMSO for the control experiment). For each compound, the ICB value was estimated as the inhibitor concentration that completely abolished the binding of MsTopA to the DNA-coated chip.

[4] = test system: M. smegmatis mc2155; assay: Growth analysis (Bioscreen C, log-phase growth rate); assay type: cell-based; conditions: for inhibition at 30 µM: log-phase growth rate vs 1% DMSO; for IC50 lower than amsacrine: M. smegmatis growth
[5] = test system: S. venezuelae; assay: as above; assay type: cell-based; conditions: for IC50: growth rate in log-phase, Figure 2B
[6] = test system: E. coli; assay: as above; assay type: cell-based; conditions: Escherichia coli; for IC50: growth rate in log-phase, Figure 2B
[7] = test system: M. smegmatis MSZ2 strain producing M. tuberculosis MtTopA; assay type: cell-based
[8] = test system: M. smegmatis strain (JH01), DnaN-EGFP; assay: TLMM: number of DnaN-EGFP foci per cell
Description: For time-lapse microscopy, M. smegmatis strains were cultured to the log-phase of growth, then diluted with 7H9 medium supplemented with 10% OADC and 0.05% Tween-80 and loaded into the flow chamber of B04A plates with a CellASIC ONIX flow control system (Merck-Millipore). During the experiment, the cells were continuously supplied with fresh medium supplemented with the inhibitor (at 30–240 μM concentrations) or 1% DMSO in the control experiment. To visualize dead cells, after 15 h of inhibitor treatment cells were washed with propidium iodide at concentration 10 μg/ml for 1 h. The images were taken in 10 min intervals using a Delta Vision Elite Imager equipped with DV Elite CoolSnap HQ2 Camera and SoftWorx software and were subsequently analyzed using ImageJ Fiji suite (http://fiji.sc/Fiji) and R suite (http://www.R-project.org). The analysis of cell cycle and evaluation of particular phases of growth started from the moment of appearance of a single DnaN-EGFP foci (initiation of DNA replication).

[9] = test system: M. smegmatis strain (JH01), DnaN-EGFP; assay: TLMM: replisome lifetime and cell cycle phases; conditions: for Average lifetime of DnaN-EGFP complex (replisome lifetime): 120 μM, control 1% DMSO 130 min; for Phase D+B / Phase C / Complete cell cycle: 120 µM, mean (SD), n = 50; for Phase D+B: 1% DMSO 33 (15); for Phase C: 1% DMSO 129 (15); for Complete cell cycle: 1% DMSO 162 (18)
Description: For time-lapse microscopy, M. smegmatis strains were cultured to the log-phase of growth, then diluted with 7H9 medium supplemented with 10% OADC and 0.05% Tween-80 and loaded into the flow chamber of B04A plates with a CellASIC ONIX flow control system (Merck-Millipore). During the experiment, the cells were continuously supplied with fresh medium supplemented with the inhibitor (at 30–240 μM concentrations) or 1% DMSO in the control experiment. […] The images were taken in 10 min intervals using a Delta Vision Elite Imager equipped with DV Elite CoolSnap HQ2 Camera and SoftWorx software and were subsequently analyzed using ImageJ Fiji suite (http://fiji.sc/Fiji) and R suite (http://www.R-project.org). The analysis of cell cycle and evaluation of particular phases of growth started from the moment of appearance of a single DnaN-EGFP foci (initiation of DNA replication).
The calculation of an average time of particular phases of M. smegmatis cell cycle.
Phase C corresponds to chromosome replication. It starts with the appearance of a single DnaN-
EGFP focus (time 0) (green dot), which subsequently splits into two foci.
the termination of DNA replication and cell division and the time after cell division prior to initiation of
replication. The time of complete cell cycle is the sum of C and D+B phases.The data in the table show
the average time of each phase as well as the time of complete M. smegmatis cell cycle in TLMM
experiment (see the material and methods) in control experiment (DMSO) or during treatment with
amsacrine/XC-4 inhibitor.

[10] = Solubility under microfluidic conditions; assay type: physicochemical
[11] = test system: M. smegmatis (JH01 strain); assay: Propidium iodide staining of dead cells (TLMM); conditions: 120 μM, after 15 hours of exposure
Description: For time-lapse microscopy, M. smegmatis strains were cultured to the log-phase of growth, then diluted with 7H9 medium supplemented with 10% OADC and 0.05% Tween-80 and loaded into the flow chamber of B04A plates with a CellASIC ONIX flow control system (Merck-Millipore). During the experiment, the cells were continuously supplied with fresh medium supplemented with the inhibitor (at 30–240 μM concentrations) or 1% DMSO in the control experiment. To visualize dead cells, after 15 h of inhibitor treatment cells were washed with propidium iodide at concentration 10 μg/ml for 1 h. The images were taken in 10 min intervals using a Delta Vision Elite Imager equipped with DV Elite CoolSnap HQ2 Camera and SoftWorx software and were subsequently analyzed using ImageJ Fiji suite (http://fiji.sc/Fiji) and R suite (http://www.R-project.org).
M. smegmatis (JH01 strain) growth in the presence of 120 µM amsacrine or 1% DMSO was
visualized using TLMM microscopy (the procedure descirbed in the materials and methods).
After 15 hours of exposure to antibiotic cells were washed with medium suplemented with 10
µg/ml propidium iodide for 1 hour to detect dead cells (red) in the population.

[12] = Mycolicibacterium smegmatis, MC2155
[13] = Mycolicibacterium smegmatis, MC2155, M. smegmatis, Figure S4, read-out: IC50 (growth inhibition fitted to a sigmoidal model)
[14] = Mycolicibacterium smegmatis, MC2155, growth rate in log-phase, Figure 2B, read-out: IC50 M. smegmatis

Row | Structure (SMILES) | MsTopA inhibition in the screen of amsacrine derivatives (Table S2) [1] | inhibition at 60 µM [1] | MsTopA activity inhibition over concentration range [1] | Inhibitory effect when added to the preformed MsTopA-DNA complex (PN assay) [2] | MsTopA affinity for DNA (SPR) [3] | ICB, inhibitory concentration that completely blocks MsTopA binding [3] | inhibition at 30 µM [4, 12] | IC50 [4, 13] | S. venezuelae growth inhibition ([5]; 60 μM) | IC50 ([5]; Streptomyces venezuelae) | IC50 [6] | Difference in growth inhibition between wild-type M. smegmatis and MSZ2 strain producing MtTopA [7] | Percentage of cells with more than two DnaN-EGFP foci ([8]; 120 μM) | Percentage of cells with no DnaN-EGFP focus ([8]; 120 μM) | Average lifetime of DnaN-EGFP complex (replisome lifetime) [9] | IC50 [4, 14] | IC50 lower than amsacrine [4] | Phase D+B [9] | Phase C [9] | further results
1 | COc1cc(NS(=O)(=O)c2ccc(Cl)cc2)ccc1Nc1c2ccccc2nc2ccccc12 [XC-2] | efficiently inhibited MsTopA activity | 63% | strongly inhibit MsTopA activity at concentrations >30 μM | notably weaker | decrease in enzyme affinity for DNA | 30 µM | 20 to 30% | 56 µM | much lesser extent than amsacrine | 85 µM | > 90 µM | did not observe any differences in growth inhibition | 13.4–19.1% | 13.8–18.3% | slightly increased | – | – | – | – | –
2 | COc1cc([C@@H]2c3cc4c(cc3[C@@H](O[C@@H]3O[C@@H]5CO[C@@H](C)O[C@H]5[C@H](O)[C@H]3O)[C@H]3COC(=O)[C@H]23)OCO4)cc(OC)c1O [etoposide, reference compound] | – | – | – | – | – | – | – | – | – | – | – | – | – | – | – | – | – | – | – | MsTopA inhibition ([1]; etoposide 0.1 - 2.0 mM): did not observe MsTopA inhibition
3 | COc1cc(NS(=O)(=O)c2ccccc2)ccc1Nc1c2ccccc2nc2ccccc12 [XC-1] | efficiently inhibited MsTopA activity | 73% | strongly inhibit MsTopA activity at concentrations >30 μM | notably weaker | decrease in enzyme affinity for DNA | 60 µM | 20 to 30% | 55.4 µM | much lesser extent than amsacrine | > 90 µM | > 90 µM | did not observe any differences in growth inhibition | 13.4–19.1% | 13.8–18.3% | slightly increased | 58 µM | – | – | – | –
4 | COc1cc(NS(=O)(=O)c2ccc([N+](=O)[O-])cc2)ccc1Nc1c2ccccc2nc2ccccc12 [XC-3] | efficiently inhibited MsTopA activity | 73% | strongly inhibit MsTopA activity at concentrations >30 μM | – | decrease in enzyme affinity for DNA | 15 µM | 55 to 60% | 26.8 µM | much lesser extent than amsacrine | > 90 µM | 78 µM | did not observe any differences in growth inhibition | 13.4–19.1% | 13.8–18.3% | slightly increased | 26 µM | 30–40% | – | – | Solubility under microfluidic conditions [10]: poor solubility
5 | COc1cc(NS(=O)(=O)c2ccc(C)cc2)ccc1Nc1c2ccccc2nc2ccccc12 [XC-4] | efficiently inhibited MsTopA activity | 80% | strongly inhibit MsTopA activity at concentrations >30 μM | – | decrease in enzyme affinity for DNA | 15 µM | 55 to 60% | 27 µM | much lesser extent than amsacrine | > 90 µM | 86 µM | did not observe any differences in growth inhibition | 4.6% | – | 220 min | 28 µM | 30–40% | 70 (38) min | 240 (51) min | Percentage of cells with more than two DnaN-EGFP foci ([8]; 30 μM): 19.3%; DnaN-EGFP lifetime ([9]; 30 μM, compared with 120 μM XC-4): shortened the DnaN-EGFP lifetime
6 | COc1cc(NS(C)(=O)=O)ccc1Nc1c2ccccc2nc2ccccc12 [Amsacrine, amsacrine] | – | 64% | strongly inhibit MsTopA activity at concentrations >30 μM | – | decrease in enzyme affinity for DNA | 90 µM | 20 to 30% | 40 µM | – | 47 µM | > 90 µM | did not observe any differences in growth inhibition | 27.6% | 26.1% | slightly increased | 41 µM | – | 40 (21) min | 154 (32) min | inhibition at 60 µM ([4]; Mycolicibacterium smegmatis, MC2155, 60 μM): ≤ 80%; inhibition at 60 µM ([5]; Streptomyces venezuelae, 60 μM): ≤ 80%; inhibition at 60 µM ([6]; read-out: E. coli growth inhibition): 32%; Percentage of cells with more than two DnaN-EGFP foci ([8]; 240 μM): 6.2%; Percentage of cells with no DnaN-EGFP focus ([8]; 240 μM): 48%; Fraction of dead cells (propidium iodide) [11]: 12%; Complete cell cycle [9]: 194 (36) min; Complete cell cycle ([9]; listed as amsacrine): only slightly

From PMC6056748, “Amsacrine Derivatives Selectively Inhibit Mycobacterial Topoisomerase I (TopA), Impair M. smegmatis Growth and Disturb Chromosome Replication” (Frontiers in Microbiology, 2018)
